Results from patent US11434242B2, “Dopamine-b-hydroxylase inhibitors” (BIAL-PORTELA & Cª, S.A., priority 2017, dated 2022).

Molecular target: T1, Dopamine beta hydroxylase (Homo sapiens, UniProt P09172)
T1 construct: 125 μl of plasma; tissue Instituto Português do Sangue Transplantação; host or cells: human plasma from healthy donors
T1 sequence (P09172 40-617 limits assumed): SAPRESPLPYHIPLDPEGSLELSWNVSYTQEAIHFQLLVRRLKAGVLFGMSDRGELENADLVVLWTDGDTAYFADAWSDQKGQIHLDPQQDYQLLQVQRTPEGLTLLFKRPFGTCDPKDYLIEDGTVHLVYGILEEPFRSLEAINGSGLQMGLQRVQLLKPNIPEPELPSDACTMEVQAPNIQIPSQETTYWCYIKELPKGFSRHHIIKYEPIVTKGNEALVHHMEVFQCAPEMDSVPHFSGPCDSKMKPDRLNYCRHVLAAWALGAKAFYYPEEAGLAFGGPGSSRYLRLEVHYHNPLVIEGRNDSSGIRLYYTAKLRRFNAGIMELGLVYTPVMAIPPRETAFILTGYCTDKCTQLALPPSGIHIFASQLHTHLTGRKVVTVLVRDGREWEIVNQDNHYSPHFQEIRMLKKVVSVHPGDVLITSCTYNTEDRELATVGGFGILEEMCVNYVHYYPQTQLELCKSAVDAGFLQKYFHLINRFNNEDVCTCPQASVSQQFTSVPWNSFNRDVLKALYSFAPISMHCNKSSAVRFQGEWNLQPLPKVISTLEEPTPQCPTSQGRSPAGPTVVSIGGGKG
Assay: Dopamine beta hydroxylase activity in human plasma
Format: biochemical
Conditions: for Plasma (0.01 μM), activity in % of control: inhibitor 0.01 μM; for Plasma (0.1 μM), activity in % of control: inhibitor 0.1 μM; for Plasma (1 μM), activity in % of control: inhibitor 1 μM
Procedure: Furthermore, the ability of a compound to inhibit DβH activity may be assessed in human plasma using the following assay. […]. Dopamine beta hydroxylase activity in human plasma was measured by the method of Nagatsu and Udenfriend (Nagatsu, T. and Udenfriend, S. “Photometric assay of dopamine-μ-hydroxylase activity in human blood.” Clin. Chem. 18(9) 980-983, 1972) with minor modifications. Catalase, N-ethylmaleimide, tyramine, disodium fumarate, pargyline, sodium acetate, ascorbic acid, copper sulfate and octopamine were obtained from Sigma Chemical Co., St. Louis, Mo. 63178. Human plasma samples were obtained from healthy donors (Instituto Português do Sangue Transplantação, Centro Sangue Transplantação, Porto, Portugal). From date of collection, plasma was stored at −80° C. until use. Test compounds were initially prepared in dimethyl sulfoxide at a concentration of 10 mM and diluted in dimethyl sulfoxide to the required concentrations. Test compounds were further diluted in ultrapure water to a concentration 20-fold to that of the final concentration to be tested. Final concentrations of test compounds were 10, 100 and 1000 nM. The various reagents used to make up the incubation buffer were premixed and consisted of the following components: sodium acetate buffer (1 M, pH 5.0, 18 ml), sodium fumarate (0.2 M, 4.5 ml), ascorbic acid (0.2 M, 4.5 ml, freshly prepared), pargyline (20 mM, freshly prepared, 4.5 ml), N-ethylmaleimide (0.2 M, 4.5 ml), catalase (10 000 U/ml, 9 ml), copper sulfate (20 μM, 4.5 ml) and 4.5 ultrapure water. The standard incubation mixture (total volume, 950 μl) contained: 50 μL of compound or vehicle (dimethyl sulfoxide 2%); 700 μL of incubation buffer; 125 μl of plasma (or saline for blank reaction or standard curve); 75 μl of saline. The reaction mixture was placed in water bath, shaking at 37° C. and pre-incubated for 10 minutes. Tyramine (0.5 M) was added and incubation proceeded for 45 minutes. The reaction contents were exposed to air. A sample of enzyme preparation (with 125 μl of plasma) that had been added perchloric acid 2 M at the end of the pre-incubation period was used as blank. A blank for each of the tested compounds was used. For octopamine standard curve, perchloric acid 2 M was replaced by increasing concentrations of octopamine prepared in perchloric acid 2 M (0.5, 1, 2.5, 5, 7.5, 10, 15, 20 μg/ml, final concentration). The incubation was stopped by adding 200 μl of 2 M molar perchloric acid, and the mixture was centrifuged at 9000 g for 5 min. The supernatant fluid (800 μL) was transferred to a column (SPE cartridge ISOLUTE SCX-3, 100 mg) and centrifuged at 150 g for 2 min. The column was washed two more times with 0.5 ml of ultrapure water by centrifuging at 150 g for 2 min. The adsorbed octopamine was eluted twice with 0.3 ml of 4 M ammonium hydroxide by centrifuging at 150 g for 2 min. Octopamine in the eluate was then converted to p-hydroxybenzaldehyde by adding 200 μl of sodium periodate (2%) and incubating for 6 min. Excess periodate was than reduced by adding 200 μl of sodium metabisulfite (10%). Absorbance was measured at […] in a 96-well plate by use of a SpectraMAX plus 384 (Molecular Devices) with software SOFTmax® PRO Software 5.3 spectrophotometer. Absorbance was linear with octopamine concentration from 0.5 to 20 μg/ml. Dopamine beta hydroxylase activity is determined as nmol of octopamine formed/ml of plasma/hour and effect of compounds is presented as % control.
Results are reported in the table below as activity in % of control at the inhibitor concentration tested.

| Plasma (0.01 μM), activity in % of control | Plasma (0.1 μM), activity in % of control | Plasma (1 μM), activity in % of control | SMILES |
| --- | --- | --- | --- |
| 115.2 % of control | 80.3 % of control | – | Cn1c(CC(=O)N[C@@H]2CCOC2)c2n(c1=S)C[C@@H](c1cc(Cl)ccc1F)C2 [Example 246, 2-((R)-6-(5-chloro-2-fluorophenyl)-2-methyl-3-thioxo-2,5,6,7-tetrahydro-3H-pyrrolo[1,2-c]imidazol-1-yl)-N—((R)-tetrahydrofuran-3-yl)acetamide] |
| 45.4 % of control | 4.3 % of control | – | Cn1c(CC(=O)NC2CCOCC2)c2n(c1=S)C[C@H](c1c(F)ccc(Cl)c1F)C2 [Example 367, (S)-2-(6-(3-chloro-2,6-difluorophenyl)-2-methyl-3-thioxo-2,5,6,7-tetrahydro-3H-pyrrolo[1,2-c]imidazol-1-yl)-N-(tetrahydro-2H-pyran-4-yl)acetamide] |
| 93.4 % of control | 32.0 % of control | – | CN(C(=O)Cc1c2n(c(=S)n1C)C[C@@H](c1c(F)ccc(F)c1F)C2)C1CCOCC1 [Example 372, (R)—N-methyl-2-(2-methyl-3-thioxo-6-(2,3,6-trifluorophenyl)-2,5,6,7-tetrahydro-3H-pyrrolo[1,2-c]imidazol-1-yl)-N-(tetrahydro-2H-pyran-4-yl)acetamide] |
| 27.7 % of control | 3.0 % of control | – | Cn1c(CC(=O)N[C@H]2CCOC2)c2n(c1=S)C[C@@]1(c3c(F)ccc(Cl)c3F)C[C@@H]21 [Example 418, 2-((5aS,6aR)-5a-(3-chloro-2,6-difluorophenyl)-2-methyl-3-thioxo-2,3,5,5a,6,6a-hexahydrocyclopropa[3,4]pyrrolo[1,2-c]imidazol-1-yl)-N—((S)-tetrahydrofuran-3-yl)acetamide] |
| 106.5 % of control | 43.7 % of control | – | O=C(Cc1[nH]c(=S)n2c1C[C@H](c1c(F)ccc(Br)c1F)C2)N1CCS(=O)(=O)CC1 [Example 125, (R)-2-(6-(3-bromo-2,6-difluorophenyl)-3-thioxo-2,5,6,7-tetrahydro-3H-pyrrolo[1,2-c]imidazol-1-yl)-1-(1,1-dioxidothiomorpholino)ethan-1-one] |
| – | 18.2 % of control | 2.0 % of control | O=C(Cc1[nH]c(=S)n2c1[C@@H]1C[C@]1(c1cc(Br)ccc1F)C2)NCCc1ccccn1 [Example 145, 2-((5aS,6aR)-5a-(5-bromo-2-fluorophenyl)-3-thioxo-2,3,5,5a,6,6a-hexahydrocyclopropa[3,4]pyrrolo[1,2-c]imidazol-1-yl)-N-(2-(pyridin-2-yl)ethyl)acetamide] |
| – | 78.8 % of control | 15.9 % of control | O=C(Cc1[nH]c(=S)n2c1C[C@H](c1c(F)c(F)cc(F)c1F)C2)N1CCC(CO)CC1 [Example 83, (R)-1-(4-(hydroxymethyl)piperidin-1-yl)-2-(6-(2,3,5,6-tetrafluorophenyl)-3-thioxo-2,5,6,7-tetrahydro-3H-pyrrolo[1,2-c]imidazol-1-yl)ethan-1-one] |
| 39.8 % of control | 5.5 % of control | – | CN(C(=O)Cc1c2n(c(=S)n1C)C[C@H](c1c(F)ccc(Br)c1F)C2)[C@@H]1CCOC1 [Example 451, 2-((S)-6-(3-bromo-2,6-difluorophenyl)-2-methyl-3-thioxo-2,5,6,7-tetrahydro-3H-pyrrolo[1,2-c]imidazol-1-yl)-N-methyl-N—((R)-tetrahydrofuran-3-yl)acetamide] |

More lines, now with the values behind:

| SMILES | Plasma (0.01 μM), activity in % of control | Plasma (0.1 μM), activity in % of control | Plasma (1 μM), activity in % of control |
| --- | --- | --- | --- |
| Cn1c(CC(=O)Nc2nncs2)c2n(c1=S)C[C@H](c1c(F)ccc(Cl)c1F)C2 [Example 285, (S)-2-(6-(3-chloro-2,6-difluorophenyl)-2-methyl-3-thioxo-2,5,6,7-tetrahydro-3H-pyrrolo[1,2-c]imidazol-1-yl)-N-(1,3,4-thiadiazol-2-yl)acetamide] | 55.8 % of control | 22.2 % of control | – |
| Cn1c(CC(=O)NC2CCCC2)c2n(c1=S)C[C@@]1(c3cc(Br)ccc3F)C[C@@H]21 [Example 272, 2-((5aS,6aR)-5a-(5-bromo-2-fluorophenyl)-2-methyl-3-thioxo-2,3,5,5a,6,6a-hexahydrocyclopropa[3,4]pyrrolo[1,2-c]imidazol-1-yl)-N-cyclopentylacetamide] | 73.5 % of control | 22.7 % of control | – |
| Cn1c(CC(=O)N2CC[C@H](C#N)C2)c2n(c1=S)C[C@H](c1c(F)ccc(Br)c1F)C2 [Example 450, (S)-1-(2-((S)-6-(3-bromo-2,6-difluorophenyl)-2-methyl-3-thioxo-2,5,6,7-tetrahydro-3H-pyrrolo[1,2-c]imidazol-1-yl)acetyl)pyrrolidine-3-carbonitrile] | 32.6 % of control | 2.3 % of control | – |
| Cn1c(CC(=O)N2CCOCC2)c2n(c1=S)C[C@@H](c1c(F)ccc(F)c1F)C2 [Example 237, (R)-2-(2-methyl-3-thioxo-6-(2,3,6-trifluorophenyl)-2,5,6,7-tetrahydro-3H-pyrrolo[1,2-c]imidazol-1-yl)-1-morpholinoethan-1-one] | 92.9 % of control | 61.6 % of control | – |
| Cn1c(CCC(=O)N[C@@H]2CCCOC2)c2n(c1=S)C[C@@H](c1c(F)ccc(F)c1F)C2 [Example 288, 3-((R)-2-methyl-3-thioxo-6-(2,3,6-trifluorophenyl)-2,5,6,7-tetrahydro-3H-pyrrolo[1,2-c]imidazol-1-yl)-N—((R)-tetrahydro-2H-pyran-3-yl)propanamide] | 82.0 % of control | 81.1 % of control | – |
| Fc1ccc(Br)c(F)c1[C@H]1Cc2c(CCN[C@@H]3CCOC3)[nH]c(=S)n2C1 [Example 176, (R)-6-(3-bromo-2,6-difluorophenyl)-1-(2-(((R)-tetrahydrofuran-3-yl)amino)ethyl)-2,5,6,7-tetrahydro-3H-pyrrolo[1,2-c]imidazole-3-thione] | 95.3 % of control | 74.9 % of control | – |
| O=C(Cc1[nH]c(=S)n2c1C[C@H](c1c(F)c(F)cc(F)c1F)C2)NC1CC1 [Example 78, (R)—N-cyclopropyl-2-(6-(2,3,5,6-tetrafluorophenyl)-3-thioxo-2,5,6,7-tetrahydro-3H-pyrrolo[1,2-c]imidazol-1-yl)acetamide] | – | 77.3 % of control | 24.4 % of control |
